Reference: patent publication US9303088B2, “Detecting and treating breast cancer resistance to EGFR inhibitors” (The Regents of the University of California, priority 2009, dated 2016)

Tests used:
HMT3522 T4-2 cells = experiment: Phenotypic reversion of malignant T4-2 cells cultured in 3D lrECM with signaling inhibitors; format: cell-based, human; settings: for phenotypic reversion of control T4-2 cells: vector control T4-2 cells (FIG. 17C); for induction of phenotypically normal acinus-like structures: T4-2 cells in 3D lrECM
Description: The retroviral cDNA library from malignant T4-2 cells was re-introduced into T4-2 cells. Retrovirus transduced T4-2 cells were subsequently grown on 3D1rECM with one of the small molecule inhibitors, AG1478 (EGFR inhibitor), PD98059 (mitogen-activated protein kinase inhibitor), or LY294002 (PI3K inhibitor), […] […] After the second round of screening, the cDNA inserts were recovered from genomic DNA by PCR using primers to the flanking sequences of the retroviral cloning vector. Genomic DNA was isolated from selected clones grown on the monolayer.
Microscopic visual fields of FIG. 3 show non-malignant HMT3522 S1 cells form polarized acinar structures (FIG. 3A) resembling normally differentiated acinus in vivo, whereas malignant T4-2 cells form disorganized colonies constantly growing on 3D 1rECM (FIG. 3B).
(§1) FIG. 4B is a western blot of extracted cell lysates blotted with antibodies against EGFR, β-integrin, phosphorylated EGFR, and E-cadherin, which was used as a loading control.

[1] = system: FAM83A overexpressing T4-2 cells; experiment: Phenotypic reversion of FAM83A-overexpressing T4-2 cells in 3D lrECM with inhibitors; format: cell-based, human; settings: for phenotypic reversion of full-length FAM83A overexpressing T4-2 cells: 3D lrECM (FIG. 5B)
[2] = system: Vector control T4-2 cells; experiment: Lapatinib treatment of vector control T4-2 xenografts in mice; format: in vivo, BALB/c-nude mice
Method: (§2) Animal experiments were performed under federal guidelines and approved by Institutional Animal Welfare and Research Committee at LBN. Exponentially growing T4-2 cells or MDA-MB-468 cells were suspended at the density of 5×10^6 or 10×10^6, respectively, in 100 μl medium containing DMEM/F12 medium (50%) and Matrigel (50%). Cell suspension was subcutaneously injected into the rear flank of 6-8 wk old athymic female BALB/c-nude mice (nu/nu) (Charles River Laboratories) (n=8 per group). Tumor volumes were measured every other day. ANOVA 2-way analysis with Bonferroni post test was used to determine p-value. At the end of experiments, mice were sacrificed and subjected to pathological examinations.
(§3) The ability of FAM83A to confer cancer cell resistance to EGFR inhibitor in vivo was determined Vector control or FAM83A-overexpressing T4-2 cells were xenografted into mice, which were orally administered lapatinib by oral gavage at 30 mg/kg or 100 mg/kg twice daily for 3 weeks. […] Then, mice were randomized into vehicle (0.5% hydroxypropylmethylcellulose with 0.1% Tween 80 in water; n=8) and experimental treatment groups (n=8) to receive oral gavage of lapatinib at 30 mg/kg or 100 mg/kg twice daily for 3 weeks.

[3] = system: FAM83A-overexpressing T4-2 cells; experiment: Lapatinib treatment of FAM83A-overexpressing T4-2 xenografts in mice; format: in vivo, BALB/c-nude mice
Method: as §2, §3

EGFR = experiment: Western blot of EGFR, phosphorylated EGFR and β1-integrin in AG1478-treated T4-2 cells; format: cell-based, human; settings: 3D lrECM, western blot (FIG. 4B)
Description: as §1

FAM83A [4] = experiment: RT-PCR and western blot of endogenous FAM83A in AG1478-treated T4-2 cells; format: cell-based, human
Method: The expression level of endogenous FA[…] in non-reverted and reverted T4-2 cells was analyzed by RT-PCR and western blot with antibody against endogenous FA[…]. […] RNA levels in T4-2 cells cultured in both 2D monolayer and 3D 1rECM treated with AG1478 or vehicle control DMSO for 4 days. FIG. 7B is a bar graph quantification of the results from FIG. 7A. […] RNA levels in S1 cells growing in 2D or 3D cultures. FIG. 7C is a western blot comparison of FA[…] protein levels in S1 and T4-2 cells growing in 2D or 3D cultures in the presence or absence of AG1478.

MDA-MB468 cells = experiment: Xenograft growth of FAM83A shRNA-treated MDA-MB468 cells in nude mice; format: in vivo, BALB/c-nude mice; settings: fraction of the control cells (FIG. 17B)
Method: as §2
To confirm this observation for cells with stable FAM83A-depletion and a different genetic background, control or FAM83A shRNA-treated MDA-MB468 cells were subcutaneously injected into the rear flank of nude mice and monitored for their growth. For FAM83A shRNA production, a double-stranded DNA oligonucleotide was generated from the following sequences: sense, 5′-[…]-3′ (SEQ ID NO:7); antisense, 5′-[…]-3′ (SEQ ID NO:8) (target sequence underlined; BamH1/EcoR1 cohesive ends italicized). Both oligonucleotides were annealed and ligated into BamH1/EcoR1 site of pGreen puro lentival vector (System Biosciences).

FAM83A [5] = experiment: FAM83A protein knock-down by siRNA in T4-2 cells (western blot and immunofluorescence with FAM83A polyclonal antibody); format: cell-based, human; settings: T4-2 lysates, western blot vs scrambled control (FIG. 14B)
Method: The specificity of FAM83A polyclonal antibody was tested by performing western blot and immunofluorescence analysis in two different sets of FAM83A-specific siRNA-treated T4-2 cells (siRNA#1, SEQ ID NO:1; and siRNA#2, SEQ ID NO:2) using the FAM83A polyclonal antibody.

[6] = lapatinib 30 mg/kg, hematoxylin and eosin (FIG. 18B)
[7] = lapatinib oral gavage twice daily for 3 weeks, 30 mg/kg (FIG. 17D)

Question: With `CS(=O)(=O)CCNCc1ccc(-c2ccc3ncnc(Nc4ccc(OCc5cccc(F)c5)c(Cl)c4)c3c2)o1` [lapatinib] as the molecule, how does the “phenotypic reversion of control T4-2 cells” value (HMT3522 T4-2 cells) read?
Answer: The value was “reverted”.

Question: What about the “structure of FAM83A-overexpressing T4-2 cells in presence of EGFR inhibitor” value ([1]; FIG. 17C) of the same molecule?
Answer: The value was “maintained disorganized structures”.

Question: What about the “dose dependence of tumor inhibitory action on control cells” value ([2]; 30 mg/kg or 100 mg/kg oral gavage twice daily (FIG. 18A)) of the same molecule?
Answer: Its value is “independent of the dose above 30 mg/kg”.

Question: What about the “pathological examination of sectioned control tumors” value [2, 6] of the same molecule?
Answer: The value was “well-circumscribed and distinctly separated from the stromal regions”.

Question: What about the “growth of control tumors” value [2, 7] of the same molecule?
Answer: Its value is “significantly inhibited”.

Question: What about the “pathological examination of sectioned FAM83A-overexpressing tumors” value [3, 6] of the same molecule?
Answer: Its value is “had been invading the stromal regions”.

Question: What about the “size of lapatinib-treated FAM83A-overexpressing tumors relative to controls” value ([3]; lapatinib oral gavage twice daily for 3 weeks (FIG. 17D)) of the same molecule?
Answer: The value was 5 times.

Question: And the “growth of FAM83A-overexpressing tumors” value [3, 7]?
Answer: Its value is “not affected”.

Question: AG1478 was tested. Which “morphology of T4-2 cells treated with AG1478” value (HMT3522 T4-2 cells; 3D lrECM, 10 days, different concentrations (FIG. 4A)) did it give?
Answer: The value was “form growth arrested acinus-like structures”.

Question: And the “induction of phenotypically normal acinus-like structures” value (HMT3522 T4-2 cells; 100 nM AG1478)?
Answer: The value was “phenotypically normal acinus-like structures were induced”.

Question: What about the “phenotypic reversion of full-length FAM83A overexpressing T4-2 cells” value [1] of the same molecule?
Answer: The value was “not”.

Question: And the EGFR protein level (EGFR)?
Answer: The EGFR protein level was “decreased levels”.

Question: What about the “phosphorylated EGFR level” value (EGFR) of the same molecule?
Answer: The value was “lower levels”.

Question: What about the β1-integrin protein level (EGFR) of the same molecule?
Answer: The β1-integrin protein level was “decreased levels”.

Question: What about the “FAM83A mRNA expression” value (FAM83A [4]; AG1478 4 days, RT-PCR) of the same molecule?
Answer: The value was “decreased”.

Question: What about the FAM83A protein expression (FAM83A [4]; AG1478, western blot) of the same molecule?
Answer: The FAM83A protein expression was “decreased”.

Question: For `COc1cc2ncnc(Nc3ccc(F)c(Cl)c3)c2cc1OCCCN1CCOCC1` [gefitinib], which “phenotypic reversion of control T4-2 cells” value (HMT3522 T4-2 cells) is on record?
Answer: The value was “reverted”.

Question: With `COc1cccc(-c2cc(=O)c3ccccc3o2)c1N` [PD98059] as the molecule, how does the “induction of phenotypically normal acinus-like structures” value (HMT3522 T4-2 cells; 20 μM PD98059) read?
Answer: The value was “phenotypically normal acinus-like structures were induced”.

Question: What about the “phenotypic reversion of full-length FAM83A overexpressing T4-2 cells” value [1] of the same molecule?
Answer: Its value is “undergo phenotypic reversion”.

B1: FAM83A shRNA: shRNA from double-stranded DNA oligonucleotide (SEQ ID NO:7 and 8) ligated into pGreen puro lentiviral vector (nucleic acid)
sense: GATCCGTGTGGAAGGAGAGATATACTTCCTGTCAGATATATCTCTCCTTCCACACTTTTTG
antisense: AATTCAAAAAGTGTGGAAGGAGAGATATATCTGACAGGAAGTATATCTCTCCTTCCACACG
Question: B1 was tested. Which “tumor growth relative to control cells” value (MDA-MB468 cells) did it give?
Answer: Its value is “¼”.

B2: siRNA#1: one of two different sets of FAM83A-specific siRNA; printed as SEQ ID NO:1 (nucleic acid)
chain: ATGAGCCGGTCAAGGCACCTGGGCAAAATCCGGAAGCGTCTGGAAGATGTCAAGAGCCAGTGGGTCCGGCCAGCCAGGGCTGACTTTAGTGACAACGAGAGTGCCCGGCTGGCCACGGACGCCCTCTTGGATGGGGGTTCTGAAGCCTACTGGCGGGTGCTCAGCCAGGAAGGCGAGGTGGACTTCTTGTCCTCGGTGGAGGCCCAGTACATCCAGGCCCAGGCCAGGGAGCCCCCGTGTCCCCCAGACACCCTGGGAGGGGCGGAAGCAGGCCCTAAGGGACTGGACTCCAGCTCCCTACAGTCCGGCACCTACTTCCCTGTGGCCTCAGAGGGCAGCGAGCCGGCCCTACTGCACAGCTGGGCCTCAGCTGAGAAGCCCTACCTGAAGGAAAAATCCAGCGCCACTGTGTACTTCCAGACCGTCAAGCACAACAACATCAGAGACCTCGTCCGCCGCTGCATCACCCGGACTAGCCAGGTCCTGGTCATCCTGATGGATGTGTTCACGGATGTGGAGATCTTCTGTGACATTCTAGAGGCAGCCAACAAGCGTGGGGTGTTCGTTTGTGTGCTCCTGGACCAGGGAGGTGTGAAGCTCTTCCAGGAGATGTGTGACAAAGTCCAGATCTCTGACAGTCACCTCAAGAACATTTCCATCCGGAGTGTGGAAGGAGAGATATACTGTGCCAAGTCAGGCAGGAAATTCGCTGGCCAAATCCGGGAGAAGTTCATCATCTCGGACTGGAGATTTGTCCTGTCTGGATCTTACAGCTTCACCTGGCTCTGCGGACACGTGCACCGGAACATCCTCTCCAAGTTCACAGGCCAGGCGGTGGAGCTGTTTGACGAGGAGTTCCGCCACCTCTACGCCTCCTCCAAGCCTGTGATGGGCCTGAAGTCCCCGCGGCTGGTCGCCCCCGTCCCGCCCGGAGCAGCCCCGGCCAATGGCCGCCTTAGCAGCAGCAGTGGCTCCGCCAGTGACCGCACGTCCTCCAACCCCTTCAGCGGCCGCTCGGCAGGCAGCCACCCCGGTACCCGAAGTGTGTCCGCGTCTTCAGGGCCCTGTAGCCCCGCGGCCCCACACCCGCCTCCACCGCCCCGGTTCCAGCCCCACCAAGGCCCTTGGGGAGCCCCGAGTCCCCAGGCCCACCTCTCCCCGCGGCCCCACGACGGCCCGCCCGCCGCTGTCTACAGCAACCTGGGGGCCTACAGGCCCACGCGGCTGCAGCTGGAGCAGCTGGGCCTGGTGCCGAGGCTGACTCCAACCTGGAGGCCCTTCCTGCAGGCCTCCCCTCACTTCTGA
modifications: Homo sapien
Question: How did the “23 kDa FAM83A band” value (FAM83A [5]) turn out when B2 was run?
Answer: Its value is “reduced”.

Question: And the “99 kDa FAM83A band” value (FAM83A [5])?
Answer: Its value is “reduced”.
